ChEMBL document CHEMBL4052601, “Glycybridins A-K, Bioactive Phenolic Compounds from Glycyrrhiza glabra” (J Nat Prod, 2017)
Active and inactive are the calls of the source. The calls are words filed in the database; no cut-off is given here.

What was measured:
Homo sapiens = assay: Inhibition of LPS-induced NF-kappaB (unknown origin) transactivation expressed in human SW480 cells at 10 uM administered 1 hr after LPS stimulation measured after 6 hrs by luciferase reporter gene assay relative to control; assay type: cell-based
A549 [1] = assay: Antiproliferative activity against human A549 cells at 10 uM after 24 hrs by MTS assay relative to control; assay type: functional; conditions: A549, 24 h
[2] = molecular target: T1, Tyrosine-protein phosphatase non-receptor type 1 (Homo sapiens) (UniProt P18031); conditions: at 10 µM;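 further: recombinant enzyme assay with pNPP substrate, inhibition read after 30 min versus untreated control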
T1 sequence (whole entry): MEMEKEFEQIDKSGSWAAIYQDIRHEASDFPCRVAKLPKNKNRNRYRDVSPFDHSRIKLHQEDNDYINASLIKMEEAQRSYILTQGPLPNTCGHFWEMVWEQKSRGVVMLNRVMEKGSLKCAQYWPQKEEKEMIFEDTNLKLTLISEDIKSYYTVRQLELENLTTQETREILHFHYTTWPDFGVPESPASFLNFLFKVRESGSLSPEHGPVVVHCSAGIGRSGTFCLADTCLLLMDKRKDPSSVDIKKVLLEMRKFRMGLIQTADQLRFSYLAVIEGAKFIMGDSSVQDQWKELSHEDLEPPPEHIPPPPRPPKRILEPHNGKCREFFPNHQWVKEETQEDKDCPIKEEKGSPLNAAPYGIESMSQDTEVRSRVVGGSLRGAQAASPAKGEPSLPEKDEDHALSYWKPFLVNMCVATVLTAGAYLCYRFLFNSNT
Description: Inhibition of recombinant human PTP1B using pNPP as substrate at 10 uM after 30 mins relative to control

RAW264.7 [3] = assay: Antiinflammatory activity against mouse RAW264.7 cells assessed as inhibition of LPS-induced nitric oxide production after 24 hrs by Griess assay; assay type: functional, cell-based; conditions: RAW264.7, 24 h
RAW264.7 [4] = assay: Antiinflammatory activity against mouse RAW264.7 cells assessed as inhibition of LPS-induced nitric oxide production at 10 uM after 24 hrs by Griess assay relative to control; assay type: functional; conditions: RAW264.7, 24 h
SW480 [5] = assay: Antiproliferative activity against human SW480 cells at 10 uM after 24 hrs by MTS assay relative to control; assay type: functional; conditions: SW480, 24 h
HepG2 [6] = assay: Antiproliferative activity against human HepG2 cells at 10 uM after 24 hrs by MTS assay relative to control; assay type: functional; conditions: HepG2, 24 h
[7] = molecular target: T2, Tyrosinase (Homo sapiens) (UniProt P14679); conditions: at 10 µM
T2 sequence (whole entry): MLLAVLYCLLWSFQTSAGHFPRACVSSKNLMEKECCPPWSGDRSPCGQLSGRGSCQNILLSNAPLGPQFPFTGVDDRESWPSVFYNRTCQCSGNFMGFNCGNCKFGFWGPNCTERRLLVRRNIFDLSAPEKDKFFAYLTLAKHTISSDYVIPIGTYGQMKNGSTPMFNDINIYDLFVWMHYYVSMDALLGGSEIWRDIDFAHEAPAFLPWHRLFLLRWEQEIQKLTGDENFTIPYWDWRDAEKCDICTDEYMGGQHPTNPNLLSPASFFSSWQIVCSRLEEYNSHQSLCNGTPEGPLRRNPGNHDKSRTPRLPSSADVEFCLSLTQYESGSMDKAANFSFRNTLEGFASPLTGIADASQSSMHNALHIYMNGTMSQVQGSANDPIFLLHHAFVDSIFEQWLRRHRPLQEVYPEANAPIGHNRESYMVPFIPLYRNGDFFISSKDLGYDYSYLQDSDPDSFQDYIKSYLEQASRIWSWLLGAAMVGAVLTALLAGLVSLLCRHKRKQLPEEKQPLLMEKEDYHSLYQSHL
Description: Inhibition of tyrosinase (unknown origin) using L-tyrosine as substrate at 10 uM preincubated for 15 mins followed by substrate addition relative to control

Tyrosinase [8] = molecular target: T3, Tyrosinase (Homo sapiens, UniProt P14679); assay: Inhibition of tyrosinase (unknown origin) using L-tyrosine as substrate preincubated for 15 mins followed by substrate addition
T3 sequence (P14679 whole entry): T2 sequence (whole entry)

MCF7 [9] = assay: Antiproliferative activity against human MCF7 cells at 10 uM after 24 hrs by MTS assay relative to control; assay type: functional; conditions: MCF7, 24 h
Mus musculus [10] = assay: Toxicity in BALB/c nude mouse xenografted with human A549 cells at 5 mg/kg, ip administered as daily dose for 16 days relative to control; assay type: organism-based; conditions: in vivo, 384 h
Mus musculus [11] = assay: Toxicity in BALB/c nude mouse xenografted with human A549 cells assessed as change in body weight at 5 mg/kg, ip administered as daily dose for 16 days relative to control; assay type: organism-based; conditions: in vivo, 384 h
A549 [12] = assay: Antitumor activity against human A549 cells xenografted in BALB/c nude mouse assessed as tumor growth inhibition at 5 mg/kg, ip administered as daily dose for 16 days; assay type: functional, organism-based
SW480 [13] = assay: Antiproliferative activity against human SW480 cells after 24 hrs by MTS assay; assay type: functional, cell-based; conditions: SW480, 24 h
A549 [14] = assay: Antitumor activity against human A549 cells xenografted in BALB/c nude mouse assessed as reduction in tumor volume at 10 mg/kg, ip administered as daily dose for 16 days relative to control; assay type: functional; conditions: 384 h
A549 [15] = assay: Induction of apoptosis in human A549 cells assessed as late apoptotic cells at 2.5 uM after 8 hrs by Annexin V-FITC/propidium iodide staining-based flow cytometric analysis (reference value: 12.02%); assay type: functional
A549 [16] = assay: Induction of apoptosis in human A549 cells assessed as early apoptotic cells at 20 uM after 8 hrs by Annexin V-FITC/propidium iodide staining-based flow cytometric analysis (reference value: 1.64%); assay type: functional
A549 [17] = assay: Induction of apoptosis in human A549 cells assessed as late apoptotic cells at 20 uM after 8 hrs by Annexin V-FITC/propidium iodide staining-based flow cytometric analysis (reference value: 12.02%); assay type: functional
HepG2 [18] = assay: Antiproliferative activity against human HepG2 cells after 24 hrs by MTS assay; assay type: functional, cell-based; conditions: HepG2, 24 h
A549 [19] = assay: Induction of apoptosis in human A549 cells assessed as early apoptotic cells at 2.5 uM after 8 hrs by Annexin V-FITC/propidium iodide staining-based flow cytometric analysis (reference value: 1.64%); assay type: functional
A549 [20] = assay: Induction of apoptosis in human A549 cells assessed as early apoptotic cells at 5 uM after 8 hrs by Annexin V-FITC/propidium iodide staining-based flow cytometric analysis (reference value: 1.64%); assay type: functional
A549 [21] = assay: Induction of apoptosis in human A549 cells after 8 hrs by Annexin V-FITC/propidium iodide staining-based flow cytometric analysis; assay type: functional, cell-based
MCF7 [22] = assay: Antiproliferative activity against human MCF7 cells after 24 hrs by MTS assay; assay type: functional, cell-based; conditions: MCF7, 24 h
A549 [23] = assay: Induction of apoptosis in human A549 cells assessed as late apoptotic cells at 10 uM after 8 hrs by Annexin V-FITC/propidium iodide staining-based flow cytometric analysis (reference value: 12.02%); assay type: functional
A549 [24] = assay: Antitumor activity against human A549 cells xenografted in BALB/c nude mouse assessed as reduction in tumor mass at 10 mg/kg, ip administered as daily dose for 16 days relative to control; assay type: functional; conditions: 384 h
A549 [25] = assay: Induction of apoptosis in human A549 cells assessed as late apoptotic cells at 5 uM after 8 hrs by Annexin V-FITC/propidium iodide staining-based flow cytometric analysis (reference value: 12.02%); assay type: functional
Mus musculus [26] = assay: Toxicity in BALB/c nude mouse xenografted with human A549 cells at 10 mg/kg, ip administered as daily dose for 16 days relative to control; assay type: organism-based; conditions: in vivo, 384 h
Mus musculus [27] = assay: Toxicity in BALB/c nude mouse xenografted with human A549 cells assessed as change in body weight at 10 mg/kg, ip administered as daily dose for 16 days relative to control; assay type: organism-based; conditions: in vivo, 384 h
A549 [28] = assay: Induction of apoptosis in human A549 cells assessed as early apoptotic cells at 10 uM after 8 hrs by Annexin V-FITC/propidium iodide staining-based flow cytometric analysis (reference value: 1.64%); assay type: functional
A549 [29] = assay: Antiproliferative activity against human A549 cells after 24 hrs by MTS assay; assay type: functional, cell-based
[30] = Inhibition of LPS-induced NF-kappaB (unknown origin) transactivation expressed in human SW480 cells administered 1 hr after LPS stimulation measured after 6 hrs by luciferase reporter gene assay; assay type: cell-based
Tyrosinase [31] = molecular target: T3, Tyrosinase; assay: Inhibition of tyrosinase (unknown origin) using L-tyrosine as substrate preincubated for 5 mins followed by substrate addition
RAW264.7 [32] = assay: Antiinflammatory activity against mouse RAW264.7 cells assessed as inhibition of LPS induced nitric oxide production at 20 uM […] followed by LPS challenge […] relative to control; assay type: functional
[33] = molecular target: T4, Nuclear factor erythroid 2-related factor 2 (Homo sapiens) (UniProt Q16236); assay: Activation of Nrf2 (unknown origin) expressed in human HepG2 cells after 6 hrs by ARE-driven luciferase reporter gene assay relative to control; assay type: cell-based
T4 sequence (whole entry): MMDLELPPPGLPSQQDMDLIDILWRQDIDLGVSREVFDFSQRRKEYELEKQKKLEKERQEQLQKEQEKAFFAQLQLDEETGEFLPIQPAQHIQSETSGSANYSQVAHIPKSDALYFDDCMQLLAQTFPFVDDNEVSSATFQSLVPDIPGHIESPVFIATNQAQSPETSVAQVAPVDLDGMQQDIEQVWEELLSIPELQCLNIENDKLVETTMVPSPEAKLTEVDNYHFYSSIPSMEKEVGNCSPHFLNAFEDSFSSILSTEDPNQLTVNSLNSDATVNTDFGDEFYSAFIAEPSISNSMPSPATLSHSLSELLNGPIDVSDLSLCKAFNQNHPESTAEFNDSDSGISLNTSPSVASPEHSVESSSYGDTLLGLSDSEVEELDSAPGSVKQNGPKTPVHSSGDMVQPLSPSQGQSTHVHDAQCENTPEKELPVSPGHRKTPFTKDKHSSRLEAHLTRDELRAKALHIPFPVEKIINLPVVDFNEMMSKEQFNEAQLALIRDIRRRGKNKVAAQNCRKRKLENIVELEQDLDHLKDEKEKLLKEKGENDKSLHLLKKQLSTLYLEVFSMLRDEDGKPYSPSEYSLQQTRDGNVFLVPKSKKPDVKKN

Row | SMILES | inhibition (Homo sapiens) [%] | inhibition at 10 µM (A549 [1]) [%] | inhibition [2] [%] | inhibition at 10 µM (RAW264.7 [4]) [%] | inhibition at 10 µM (SW480 [5]) [%] | inhibition at 10 µM (HepG2 [6]) [%] | inhibition [7] [%] | inhibition at 10 µM (MCF7 [9]) [%] | also measured
1 | CC1(C)C=Cc2c(O)ccc(C3=Cc4ccc(O)cc4OC3)c2O1 [GLABRENE] | 41.7 | 0 | 7.1 | 57.5 | 30.7 | 25.9 | 76.6 | 17.6 | IC50 (RAW264.7 [3]): 9.5 µM; IC50 (Tyrosinase [8]): 7.5 µM
2 | COc1cc([C@@H]2c3cc4c(cc3[C@@H](O[C@@H]3O[C@@H]5CO[C@@H](C)O[C@H]5[C@H](O)[C@H]3O)[C@H]3COC(=O)[C@H]23)OCO4)cc(OC)c1O [ETOPOSIDE] |  |  |  |  |  |  |  |  | Activity (Mus musculus [10]): Non-Toxic; Activity (Mus musculus [11]): Toxic; TGI (A549 [12]): Active
3 | CC(C)=CCc1cc2c(cc1O)OCC(c1ccc(O)c3c1OC(C)(C)C=C3)=C2 | 41.6 | 87.7 | 80.4 | 36 | 94.6 | 93.6 | 3.8 | 90.7 | IC50 (SW480 [13]): 4.6 to 6.6 µM; inhibition in vivo at 10 mg/kg (A549 [14]): 38.9%; Activity (A549 [15]): 14.08%; Activity (A549 [16]): 22.81%; Activity (A549 [17]): 72.21%; IC50 (HepG2 [18]): 4.6 to 6.6 µM; Activity (A549 [19]): 3.03%; Activity (A549 [20]): 2.42%; Activity (A549 [21]): Dose-dependent effect; IC50 (MCF7 [22]): 4.6 to 6.6 µM; Activity (A549 [23]): 32.67%; inhibition in vivo at 10 mg/kg (A549 [24]): 39.7%; Activity (A549 [25]): 17.07%; Activity (Mus musculus [26]): Non-Toxic; Activity (Mus musculus [27]): Non-Toxic; Activity (A549 [28]): 16.04%; Activity (A549 [29]): Dose-dependent effect; IC50 (A549 [29]; A549, 24 h): 4.6 µM
4 | CC1(C)C=Cc2c(ccc(-c3cc4ccc(O)cc4o3)c2O)O1 | 75.8 | 14.4 | 22.8 | 21.6 | 27.7 | 15.6 | 41.7 | 15.1 | IC50 [30]: 6.4 µM
5 | CC1(C)C=Cc2c(ccc3c2OC[C@@H](c2ccc(O)cc2O)C3)O1 [GLABRIDIN] | 0 | 12.7 | 3.6 | 19.8 | 19.8 | 12.1 | 99.7 | 8.8 | IC50 (Tyrosinase [31]): 0.09 µM
6 | C=CC(C)(C)c1cc(/C=C/C(=O)c2ccc(O)cc2)c(OC)cc1O [LICOAGROCHACONE A] | 57.2 | 17.8 | 14.5 | 14.2 | 13.6 | 57.9 | 10.6 | 55.9 | fold change (FC) (RAW264.7 [32]): 0.8; Activity [33]: Dose-dependent effect
